Experimental data as given in patent US9936701B2, “Herbicidal compounds” (Syngenta Participations AG, priority 2013, dated 2018).

Experiments:
[1] = test system: a variety of test species; assay: Post-emergence herbicidal activity (glasshouse, sprayed after 8 days cultivation, evaluated after 13 days); assay type: in vivo; set-up: key: 5=total damage to plant; 0=no damage to plant; settings: rate 1000 g/Ha, scale 0-5
How it was run: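 Pot-grown seedlings sprayed 8 days after sowing with active ingredient in acetone/water (50:50) plus 0.5% Tween 20. Glasshouse at 24/16 °C day/night, 14 h light, 65% humidity, watered twice daily. Damage scored after 13 days on a 0–5 scale (5 = total damage, 0 = none).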

[2] = test system: a variety of test species; assay: Pre-emergence herbicidal activity (glasshouse, sprayed one day after sowing, evaluated after 13 days); assay type: in vivo; set-up: key: 5=total damage to plant; 0=no damage to plant; settings: application pre-emergence, rate 1000 g/Ha, scale 0-5
How it was run: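 Sow in pots of standard soil; after one day under glasshouse conditions, spray compound (acetone/water 50:50 formulation, 0.5% Tween 20, diluted in water). Grow on at 24/16 °C, 14 h light, 65% humidity with twice-daily watering. Assess at 13 days, 0–5 damage scale.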

Structure (SMILES) | ABUTH (Abutilon theophrasti) damage score, application post-emergence [1] | ALOMY (Alopecurus myosuroides) damage score, application post-emergence [1] | AMARE (Amaranthus retroflexus) damage score, application post-emergence [1] | ECHCG (Echinochloa crus-galli) damage score, application post-emergence [1] | SETFA (Setaria faberi) damage score, application post-emergence [1] | ZEAMX (Zea mays) damage score, application post-emergence [1] | Pre-emergence herbicidal damage score, ABUTH [2] | Pre-emergence herbicidal damage score, ALOMY [2] | Pre-emergence herbicidal damage score, AMARE [2] | Pre-emergence herbicidal damage score, ECHCG [2] | Pre-emergence herbicidal damage score, SETFA [2] | Pre-emergence herbicidal damage score, ZEAMX [2]
CC1=C(Cl)C(=O)N(c2noc(C(C)(C)C)c2C#N)C1Cl (stereo not shown) [A97, 5-tert-butyl-3-(2A-dichloro-3-methyl-5-oxo-2H-pyrrol-1-yl)isoxazole-4-carbonitrile] | 5 | 5 | 5 | 5 | 5 | 3 | 5 | 4 | 5 | 4 | 5 | 3
CNC1=C(Cl)C(=O)N(c2cc(C(C)(C)C)on2)C1O (stereo not shown) [C1] | 5 | 4 | 5 | 5 | 4 | 1 | 3 | 2 | 5 | 4 | 4 | 1
COC1=C(C)C(=O)N(c2noc(C(C)(C)C)c2C#N)C1O (stereo not shown) [G7] | 5 | 5 | 5 | 5 | 5 | 5 | 5 | 4 | 5 | 5 | 5 | 4
CCC(C)(CC#N)c1cc(N2C(=O)C(Cl)=C(C)C2O)no1 (stereo not shown) [A59] | 5 | 5 | 5 | 5 | 5 | 5 | 5 | 5 | 5 | 5 | 5 | 5
CC1=C(Br)C(=O)N(c2cc(C(F)(F)F)on2)C1O (stereo not shown) [A6] | 4 | 2 | 4 | 3 | 2 | 0 | 0 | 1 | 0 | 1 | 1 | 0
CC1=C(Br)C(=O)N(c2cc(C(C)(C)C)on2)C1O (stereo not shown) [A1] | 5 | 5 | 5 | 5 | 5 | 4 | 5 | 2 | 5 | 4 | 5 | 1
CC#CCOC(=O)OC1C(C)=C(Cl)C(=O)N1c1cc(C(C)(C)C)on1 (stereo not shown) [A85] | 5 | 5 | 5 | 5 | 5 | 4 | 5 | 4 | 5 | 5 | 5 | 3
COCC(C)(C)c1cc(N2C(=O)C(Br)=C(C)C2O)no1 (stereo not shown) [A8] | 5 | 5 | 3 | 5 | 5 | 3 | 5 | 3 | 5 | 4 | 4 | 1
CC1=C(Cl)C(=O)N(c2cc(C(C)(C)C)on2)C1OC(=O)SCC(C)C (stereo not shown) [A82] |  |  | 2 | 2 | 2 | 1 | 1 | 0 | 3 | 1 | 1 | 0
